Results taken from US20230389548A1, “MIXTURES OF PYRIMIDINES AS HERBICIDAL COMPOSITIONS” (SYNGENTA CROP PROTECTION AG, priority 2020, published 2023).

Legend:
Assay in all cases: Post-emergence glasshouse spray test, visual percentage phytotoxicity after 13 days
Assay type in all cases: in vivo
[1] = test system: Echinochloa crus-galli (ECHCG); conditions: for ECHCG percentage phytotoxicity: B1; for Observed phytotoxicity ECHCG: B2.2.2
Procedure: (§1) Seeds of Setaria faberi (SETFA), Echinochloa crus-galli (ECHCG), Digitaria sanguinalis (DIGSA), Lolium perenne (LOLPE), Alopecurus myosuroides (ALOMY), Chenopodium album (CHEAL), Ipomoea hederacea (IPOHE), Stellaria media (STEME), Abutilon threophrasti (ABUTH), Amaranthus retroflexus (AMARE) were sown in standard sterilised soil in pots. After cultivation for 8 days under controlled conditions in a glasshouse (at 24/19° C., day/night; 16 hours light; no humidity control), the plants were sprayed at 500 l/Ha with an aqueous spray solution derived from the formulation of the technical active ingredients in a small amount of acetone and a solvent and emulsifier mixture referred to as IF50 (11.12% Emulsogen EL360™+44.44% N-methylpyrrolidone+44.44% Dowanol DPM glycol ether), to create a 50 g/l solution which was then diluted using 0.2% Genapol XO80 (CAS Number: 9043-30-5) as diluent to give the desired final dose of test compound.
(§2) Where active ingredients were applied as mixtures, aqueous spray solutions were prepared as above, containing both active ingredients.
(§3) The test plants were then grown under controlled conditions in a glasshouse (at 24/18° C., day/night; 15 hours light; 50% humidity) and watered twice daily. After 13 days, the test was evaluated visually for percentage phytotoxicity to the plants (where 100=total damage to plant; 0=no damage to plant; and NC=not captured) when compared to control untreated plants. Two to four replicates were applied for each treatment in a randomised block test design.
(§4) 22., E=X+Y−(X*Y/100), where
(§5) X=average percent phytotoxicity of herbicide A when applied at a certain rate Y=average percent phytotoxicity using herbicide B when applied at a certain rate E=the expected effect of the mixture of herbicides A and B as calculated from the Colby formula.

Setaria faberi (SETFA) = conditions: for SETFA percentage phytotoxicity: B1; for Observed phytotoxicity SETFA: B2.2.1
Procedure: as §1, §2, §3, §4, §5

Lolium perenne (LOLPE) = conditions: for LOLPE percentage phytotoxicity: B1; for Observed phytotoxicity LOLPE: B2.2.4
Procedure: as §1, §2, §3, §4, §5

[2] = test system: Abutilon threophrasti (ABUTH); conditions: B1
Procedure: as §1, §2, §3, §4, §5

[3] = test system: Amaranthus retroflexus (AMARE); conditions: for AMARE percentage phytotoxicity: B1; for Observed phytotoxicity AMARE: B2.2.6
Procedure: as §1, §2, §3, §4, §5

[4] = test system: Chenopodium album (CHEAL); conditions: B1
Procedure: as §1, §2, §3, §4, §5

Stellaria media (STEME) = conditions: B1
Procedure: as §1, §2, §3, §4, §5

[5] = test system: Digitaria sanguinalis (DIGSA); conditions: for DIGSA percentage phytotoxicity: B1; for Observed phytotoxicity DIGSA: B2.2.3
Procedure: as §1, §2, §3, §4, §5

[6] = test system: Alopecurus myosuroides (ALOMY); conditions: for ALOMY percentage phytotoxicity: B1; for Observed phytotoxicity ALOMY: B2.2.5
Procedure: as §1, §2, §3, §4, §5

[7] = test system: Ipomoea hederacea (IPOHE); conditions: B1
Procedure: as §1, §2, §3, §4, §5

SMILES: CC1(C)CN(Cc2ccccc2NS(=O)(=O)C(F)(F)F)C1=O [B-IV]
- ECHCG percentage phytotoxicity ([1]; 31.25 g/ha post-emergence): 1%
- ECHCG percentage phytotoxicity ([1]; 62.5 g/ha post-emergence): 13%
- ECHCG percentage phytotoxicity ([1]; 125 g/ha post-emergence): 38%
- ECHCG percentage phytotoxicity ([1]; 250 g/ha post-emergence): 60%
- ECHCG percentage phytotoxicity ([1]; 500 g/ha post-emergence): 78%
- ECHCG percentage phytotoxicity ([1]; 1000 g/ha post-emergence): 90%
- Observed phytotoxicity ECHCG ([1]; 125 g/ha post-emergence): 38%
- Observed phytotoxicity ECHCG ([1]; 250 g/ha post-emergence): 60%
- Observed phytotoxicity ECHCG ([1]; 500 g/ha post-emergence): 78%
- SETFA percentage phytotoxicity (Setaria faberi (SETFA); 31.25 g/ha post-emergence): 2%
- SETFA percentage phytotoxicity (Setaria faberi (SETFA); 62.5 g/ha post-emergence): 0%
- SETFA percentage phytotoxicity (Setaria faberi (SETFA); 125 g/ha post-emergence): 10%
- SETFA percentage phytotoxicity (Setaria faberi (SETFA); 250 g/ha post-emergence): 8%
- SETFA percentage phytotoxicity (Setaria faberi (SETFA); 500 g/ha post-emergence): 33%
- SETFA percentage phytotoxicity (Setaria faberi (SETFA); 1000 g/ha post-emergence): 63%
- Observed phytotoxicity SETFA (Setaria faberi (SETFA); 125 g/ha post-emergence): 10%
- Observed phytotoxicity SETFA (Setaria faberi (SETFA); 250 g/ha post-emergence): 8%
- Observed phytotoxicity SETFA (Setaria faberi (SETFA); 500 g/ha post-emergence): 33%
- Observed phytotoxicity SETFA (Setaria faberi (SETFA); 1000 g/ha post-emergence): 63%
- LOLPE percentage phytotoxicity (Lolium perenne (LOLPE); 31.25 g/ha post-emergence): 0%
- LOLPE percentage phytotoxicity (Lolium perenne (LOLPE); 62.5 g/ha post-emergence): 0%
- LOLPE percentage phytotoxicity (Lolium perenne (LOLPE); 125 g/ha post-emergence): 0%
- LOLPE percentage phytotoxicity (Lolium perenne (LOLPE); 250 g/ha post-emergence): 8%
- LOLPE percentage phytotoxicity (Lolium perenne (LOLPE); 500 g/ha post-emergence): 38%
- LOLPE percentage phytotoxicity (Lolium perenne (LOLPE); 1000 g/ha post-emergence): 65%
- Observed phytotoxicity LOLPE (Lolium perenne (LOLPE); 62.5 g/ha post-emergence): 0%
- Observed phytotoxicity LOLPE (Lolium perenne (LOLPE); 125 g/ha post-emergence): 0%
- Observed phytotoxicity LOLPE (Lolium perenne (LOLPE); 250 g/ha post-emergence): 8%
- Observed phytotoxicity LOLPE (Lolium perenne (LOLPE); 500 g/ha post-emergence): 38%
- Observed phytotoxicity LOLPE (Lolium perenne (LOLPE); 1000 g/ha post-emergence): 65%
- ABUTH percentage phytotoxicity ([2]; 31.25 g/ha post-emergence): 80%
- ABUTH percentage phytotoxicity ([2]; 62.5 g/ha post-emergence): 80%
- ABUTH percentage phytotoxicity ([2]; 125 g/ha post-emergence): 90%
- ABUTH percentage phytotoxicity ([2]; 250 g/ha post-emergence): 98%
- ABUTH percentage phytotoxicity ([2]; 500 g/ha post-emergence): 85%
- ABUTH percentage phytotoxicity ([2]; 1000 g/ha post-emergence): 85%
- AMARE percentage phytotoxicity ([3]; 31.25 g/ha post-emergence): 0%
- AMARE percentage phytotoxicity ([3]; 62.5 g/ha post-emergence): 15%
- AMARE percentage phytotoxicity ([3]; 125 g/ha post-emergence): 43%
- AMARE percentage phytotoxicity ([3]; 250 g/ha post-emergence): 43%
- AMARE percentage phytotoxicity ([3]; 500 g/ha post-emergence): 75%
- AMARE percentage phytotoxicity ([3]; 1000 g/ha post-emergence): 85%
- Observed phytotoxicity AMARE ([3]; 31.25 g/ha post-emergence): 0%
- Observed phytotoxicity AMARE ([3]; 62.5 g/ha post-emergence): 15%
- CHEAL percentage phytotoxicity ([4]; 31.25 g/ha post-emergence): 0%
- CHEAL percentage phytotoxicity ([4]; 62.5 g/ha post-emergence): 8%
- CHEAL percentage phytotoxicity ([4]; 125 g/ha post-emergence): 15%
- CHEAL percentage phytotoxicity ([4]; 250 g/ha post-emergence): 40%
- CHEAL percentage phytotoxicity ([4]; 500 g/ha post-emergence): 25%
- CHEAL percentage phytotoxicity ([4]; 1000 g/ha post-emergence): 75%
- STEME percentage phytotoxicity (Stellaria media (STEME); 31.25 g/ha post-emergence): 85%
- STEME percentage phytotoxicity (Stellaria media (STEME); 62.5 g/ha post-emergence): 85%
- STEME percentage phytotoxicity (Stellaria media (STEME); 125 g/ha post-emergence): 91%
- STEME percentage phytotoxicity (Stellaria media (STEME); 250 g/ha post-emergence): 93%
- STEME percentage phytotoxicity (Stellaria media (STEME); 500 g/ha post-emergence): 90%
- STEME percentage phytotoxicity (Stellaria media (STEME); 1000 g/ha post-emergence): 93%
- DIGSA percentage phytotoxicity ([5]; 31.25 g/ha post-emergence): 0%
- DIGSA percentage phytotoxicity ([5]; 62.5 g/ha post-emergence): 3%
- DIGSA percentage phytotoxicity ([5]; 125 g/ha post-emergence): 8%
- DIGSA percentage phytotoxicity ([5]; 250 g/ha post-emergence): 10%
- DIGSA percentage phytotoxicity ([5]; 500 g/ha post-emergence): 15%
- DIGSA percentage phytotoxicity ([5]; 1000 g/ha post-emergence): 55%
- Observed phytotoxicity DIGSA ([5]; 250 g/ha post-emergence): 10%
- Observed phytotoxicity DIGSA ([5]; 500 g/ha post-emergence): 15%
- Observed phytotoxicity DIGSA ([5]; 1000 g/ha post-emergence): 55%
- ALOMY percentage phytotoxicity ([6]; 31.25 g/ha post-emergence): 4%
- ALOMY percentage phytotoxicity ([6]; 62.5 g/ha post-emergence): 2%
- ALOMY percentage phytotoxicity ([6]; 125 g/ha post-emergence): 1%
- ALOMY percentage phytotoxicity ([6]; 250 g/ha post-emergence): 3%
- ALOMY percentage phytotoxicity ([6]; 500 g/ha post-emergence): 8%
- ALOMY percentage phytotoxicity ([6]; 1000 g/ha post-emergence): 8%
- Observed phytotoxicity ALOMY ([6]; 500 g/ha post-emergence): 8%
- Observed phytotoxicity ALOMY ([6]; 1000 g/ha post-emergence): 8%
- IPOHE percentage phytotoxicity ([7]; 31.25 g/ha post-emergence): 55%
- IPOHE percentage phytotoxicity ([7]; 62.5 g/ha post-emergence): 80%
- IPOHE percentage phytotoxicity ([7]; 125 g/ha post-emergence): 75%
- IPOHE percentage phytotoxicity ([7]; 250 g/ha post-emergence): 83%
- IPOHE percentage phytotoxicity ([7]; 500 g/ha post-emergence): 83%
- IPOHE percentage phytotoxicity ([7]; 1000 g/ha post-emergence): 94%
